Source: patent US9238619B2, “Phenalkylamine derivatives, pharmaceutical compositions containing them, and their use in therapy” (AbbVie Deutschland GmbH & Co. KG, priority 2010, dated 2016)
Structures can show the parent of a compound that is named as a salt.

Molecular target: human GlyT1c transporter (Homo sapiens (Human), UniProt P48067)
Experiment: Radioligand binding assays using recombinant CHO cell membranes expressing human GlyT1
Conditions: read-out: radioligand binding Kiapp
Procedure: Radioligand binding to human GlyT1c transporter-expressing membranes was determined as described in Mezler et al., Molecular Pharmacology 74:1705-1715, 2008.

Chain of human GlyT1c transporter (P48067 whole entry): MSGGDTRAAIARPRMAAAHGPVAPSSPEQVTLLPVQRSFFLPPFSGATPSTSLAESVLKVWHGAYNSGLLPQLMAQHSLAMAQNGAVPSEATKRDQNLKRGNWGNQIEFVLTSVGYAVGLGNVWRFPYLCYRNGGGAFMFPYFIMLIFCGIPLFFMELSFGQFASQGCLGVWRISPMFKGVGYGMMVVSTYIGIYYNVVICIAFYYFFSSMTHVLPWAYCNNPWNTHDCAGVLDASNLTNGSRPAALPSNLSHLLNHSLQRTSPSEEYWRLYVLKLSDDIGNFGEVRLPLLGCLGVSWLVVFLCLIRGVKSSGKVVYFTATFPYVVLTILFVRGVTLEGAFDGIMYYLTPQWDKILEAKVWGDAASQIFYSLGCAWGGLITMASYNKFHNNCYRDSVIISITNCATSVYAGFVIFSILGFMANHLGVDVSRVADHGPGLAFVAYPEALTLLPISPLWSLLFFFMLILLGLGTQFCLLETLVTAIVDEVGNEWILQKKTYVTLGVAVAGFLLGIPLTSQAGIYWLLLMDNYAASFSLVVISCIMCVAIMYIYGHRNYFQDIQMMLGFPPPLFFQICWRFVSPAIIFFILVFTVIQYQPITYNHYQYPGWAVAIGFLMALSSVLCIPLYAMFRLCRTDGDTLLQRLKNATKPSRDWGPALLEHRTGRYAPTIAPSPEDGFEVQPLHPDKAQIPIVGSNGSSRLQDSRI

Row | Structure (SMILES) | Ki [nM]
1 | NCC(Cc1ccccc1)c1cccc(CNS(=O)(=O)CC2CC2)c1 (stereo not drawn) [Example 14, N-[3-(2-Amino-1-benzyl-ethyl)-benzyl]-C-cyclopropyl-methanesulfonamide] | ≤ 10000
2 | Cn1cnc(S(=O)(=O)NCCOc2cccc(C(CN)Cc3cccc(C(F)(F)F)c3)c2)c1 (stereo not drawn) [Example 12, 1-Methyl-1H-imidazole-4-sulfonic acid (2-{3-[2-amino-1-(3-trifluoromethylbenzyl)-ethyl]-phenoxy}-ethyl)-amide, hydrochloride] | ≤ 100
3 | CN(C)CC(Cc1ccccc1)c1cc(OCCNS(=O)(=O)c2cn(C)cn2)ccc1F (stereo not drawn) [Example 23, 1-Methyl-1H-imidazole-4-sulfonic acid {2-[3-(1-benzyl-2-dimethylamino-ethyl)-4-fluoro-phenoxy]-ethyl}-amide] | ≤ 100
4 | Cn1cnc(S(=O)(=O)NCCOc2cccc(C3(Cc4ccccc4)CCNC3)c2)c1 (stereo not drawn) [Example 61, 1-Methyl-1H-imidazole-4-sulfonic acid {2-[3-(3-benzyl-pyrrolidin-3-yl)phenoxy]-ethyl}-amide] | ≤ 100
5 | CC(C)N1CCC(Cc2ccccc2)(c2cccc(OCCNS(=O)(=O)c3cn(C)cn3)c2)C1 (stereo not drawn) [Example 77, 1-Methyl-1H-imidazole-4-sulfonic acid {2-[3-(3-benzyl-1-isopropyl-pyrrolidin-3-yl)-phenoxy]-ethyl}-amide] | ≤ 1000
6 | CN(Cc1cccc(C(CN)C2(c3ccc(Cl)cc3)CCC2)c1)S(=O)(=O)CCCF (stereo not drawn) [Example 43, N-(3-{2-Amino-1-[1-(4-chlorophenyl)cyclobutyl]ethyl}benzyl)-3-fluoro-N-methylpropane-1-sulfonamide hydrochloride] | ≤ 10000
7 | O=S(=O)(CC1CC1)NCc1cccc(C2(Cc3ccccc3)CCNC2)c1 (stereo not drawn) [Example 68, N-[3-(3-Benzyl-pyrrolidin-3-yl)-benzyl]-C-cyclopropyl-methanesulfonamide] | ≤ 1000
8 | Cn1cnc(S(=O)(=O)NCc2cccc(C(Cc3ccccc3)C(=O)N3CCOCC3)c2)c1 (stereo not drawn) [Example 17, 1-Methyl-1H-imidazole-4-sulfonic acid 3-(1-benzyl-2-morpholin-4-yl-2-oxo-ethyl)-benzylamide] | ≤ 10000
9 | CN(Cc1cccc(C(CN)C2(c3ccc(Cl)cc3)CCC2)c1)S(=O)(=O)c1cn(C)cn1 (stereo not drawn) [Example 44, N-(3-{2-Amino-1-[1-(4-chlorophenyl)cyclobutyl]ethyl}benzyl)-N,1-dimethyl-1H-imidazole-4-sulfonamide hydrochloride] | ≤ 10000
10 | CN(C)CC(Cc1ccccc1)c1ccc(F)c(OCCNS(=O)(=O)c2cnn(C)c2)c1 (stereo not drawn) [Example 31, 1-Methyl-1H-pyrazole-4-sulfonic acid {2-[5-(1-benzyl-2-dimethylamino-ethyl)-2-fluoro-phenoxy]-ethyl}-amide] | ≤ 100
11 | Cn1cnc(S(=O)(=O)NCCOc2cc(C(CN)Cc3ccccc3)ccc2F)c1 (stereo not drawn) [Example 4, 1-Methyl-1H-imidazole-4-sulfonic acid {2-[5-(2-amino-1-benzyl-ethyl)-2-fluoro-phenoxy]-ethyl}-amide, hydrochloride] | ≤ 100
12 | CCCS(=O)(=O)N(C)Cc1cccc(C(CNC(=O)OC(C)(C)C)C2(c3ccc(Cl)cc3)CCC2)c1 (stereo not drawn) [Example 40, tert-Butyl {2-[1-(4-chlorophenyl)cyclobutyl]-2-(3-{[methyl(propylsulfonyl)amino]methyl}phenyl)ethyl}carbamate] | ≤ 10000
13 | CN1CC(Cc2ccccc2)(c2ccc(F)c(OCCNS(=O)(=O)c3cn(C)cn3)c2)C1 [Example 52, 1-Methyl-1H-imidazole-4-sulfonic acid {2-[5-(3-benzyl-1-methyl-azetidin-3-yl)-2-fluoro-phenoxy]-ethyl}-amide] | ≤ 100
14 | CN(C)CC(Cc1ccccc1)c1cccc(OCCNS(=O)(=O)c2cn(C)cn2)c1 (stereo not drawn) [Example 25, 1-Methyl-1H-imidazole-4-sulfonic acid {2-[3-(1-benzyl-2-dimethylaminoethyl)-phenoxy]-ethyl}-amide] | ≤ 1000
15 | CN1CCC(Cc2ccccc2)(c2cccc(CNS(=O)(=O)c3cnn(C)c3)c2)C1 (stereo not drawn) [Example 69, 1-Methyl-1H-pyrazole-4-sulfonic acid 3-(3-benzyl-1-methyl-pyrrolidin-3-yl)-benzylamide] | ≤ 1000
16 | CN(C)CC(Cc1ccccc1)c1cc(OCCNS(=O)(=O)c2cnn(C)c2)ccc1F (stereo not drawn) [Example 33, 1-Methyl-1H-pyrazole-4-sulfonic acid {2-[3-(1-benzyl-2-dimethylamino-ethyl)-4-fluoro-phenoxy]-ethyl}-amide] | ≤ 100
17 | O=S(=O)(CC1CC1)NCCOc1cccc(C2(Cc3ccccc3)CCNC2)c1 (stereo not drawn) [Example 59, N-{2-[3-(3-Benzyl-pyrrolidin-3-yl)-phenoxy]-ethyl}-C-cyclopropyl-methanesulfonamide] | ≤ 100
18 | CN(Cc1cccc(C(CNC(=O)OC(C)(C)C)C2(c3ccc(Cl)cc3)CCC2)c1)S(=O)(=O)c1cn(C)cn1 (stereo not drawn) [Example 41, tert-Butyl {2-[1-(4-chlorophenyl)cyclobutyl]-2-[3-({methyl[(1-methyl-1H-imidazol-4-yl)sulfonyl]amino}methyl)phenyl]ethyl}carbamate] | ≤ 10000
19 | Cn1cc(S(=O)(=O)NCCOc2cccc(C3(Cc4ccccc4)CNC3)c2)cn1 [Example 50, 1-Methyl-1H-pyrazole-4-sulfonic acid {2-[3-(3-benzyl-azetidin-3-yl)-phenoxy]-ethyl}-amide] | ≤ 100
20 | Cn1cc(S(=O)(=O)NCCOc2cccc(C3(Cc4ccccc4)CCNC3)c2)cn1 (stereo not drawn) [Example 60, 1-Methyl-1H-pyrazole-4-sulfonic acid {2-[3-(3-benzyl-pyrrolidin-3-yl)phenoxy]-ethyl}-amide] | ≤ 100
21 | CCOC(=O)N1CC(Cc2ccccc2)(c2cccc(OCCNS(=O)(=O)CC3CC3)c2)C1 [Example 48, 3-Benzyl-3-[3-(2-cyclopropylmethanesulfonylamino-ethoxy)-phenyl]-azetidine-1-carboxylic acid ethyl ester] | ≤ 1000
22 | CN(C)CC(Cc1ccccc1)c1ccc(F)c(OCCNS(=O)(=O)c2cn(C)cn2)c1 (stereo not drawn) [Example 32, 1-Methyl-1H-imidazole-4-sulfonic acid {2-[5-(1-benzyl-2-dimethylamino-ethyl)-2-fluoro-phenoxy]-ethyl}-amide] | ≤ 100
23 | Cn1cnc(S(=O)(=O)NCCOc2ccc(F)c(C(CN)Cc3ccccc3)c2)c1 (stereo not drawn) [Example 1, 1-Methyl-1H-imidazole-4-sulfonic acid {2-[3-(2-amino-1-benzyl-ethyl)-4-fluoro-phenoxy]-ethyl}-amide hydrochloride] | ≤ 1000
24 | Cn1cc(S(=O)(=O)NCCOc2cccc(C(Cc3ccccc3)CN3CCC3)c2)cn1 (stereo not drawn) [Example 36] | ≤ 1000
25 | COCCN1CC(Cc2ccccc2)(c2cccc(OCCNS(=O)(=O)c3cn(C)cn3)c2)C1 [Example 73, 1-Methyl-1H-imidazole-4-sulfonic acid (2-{3-[3-benzyl-1-(2-methoxy-ethyl)azetidin-3-yl]-phenoxy}-ethyl)-amide] | ≤ 100
26 | CN1CCCC(Cc2ccccc2)(c2cccc(OCCNS(=O)(=O)CC3CC3)c2)C1 (stereo not drawn) [Example 64, N-{2-[3-(3-Benzyl-1-methyl-piperidin-3-yl)-phenoxy]-ethyl}-C-cyclopropyl-methanesulfonamide] | ≤ 10000
27 | Cn1cnc(S(=O)(=O)NCCOc2cccc(C3(Cc4ccccc4)CCN(C(=O)C(F)F)C3)c2)c1 (stereo not drawn) [Example 71, 1-Methyl-1H-imidazole-4-sulfonic acid (2-{3-[3-benzyl-1-(2,2-difluoro-acetyl)pyrrolidin-3-yl]-phenoxy}-ethyl)-amide] | ≤ 1000
